We go through four molecules from patent US20050256171A1, “Pyrrolidine derivatives as tryptase inhibitors” (Altana Pharma A G, priority 2002, published 2005).

Structures are written as SMILES. Where a name gives a salt, the structure may show the parent alone.

The assay addresses human tryptase. In words: Inhibition of human tryptase (apparent dissociation constant, chromogenic substrate tos-Gly-Pro-Arg-pNA). Format: biochemical. The note with it: pKiapp = -log Kiapp (mol/l); in the presence of substrate; heparin 0.1-50 μg/ml. From the text:
The documented pathophysiological effects of mast cell tryptase are brought about directly by the enzymatic activity of the protease. Accordingly, they are reduced or blocked by inhibitors which inhibit the enzymatic activity of tryptase. A suitable measure of the affinity of a reversible inhibitor for the target protease is the equilibrium dissociation constant Ki of the enzyme/inhibitor complex. This value of Ki can be determined via the influence of the inhibitor on the tryptase-induced cleavage of a chromogenic peptide-p-nitroanilide substrate or of a fluorogenic peptide-aminomethylcoumarin substrate.
The dissociation constants for the tryptase/inhibitor complexes are determined under equilibrium conditions in accordance with the general proposals of Bieth (Bieth J G, Pathophysiological Interpretation of kinetic constants of protease inhibitors, Bull. Europ. Physiopath. Resp. 16:183-195,1980) and the methods of Sommerhoff et al. (Sommerhoff C P et al., A Kazal-type Inhibitor of human mast cell tryptase: Isolation from the medical leech Hirudo medicinalis, characterization, and sequence analysis, Biol. Chem. Hoppe-Seyler 375: 685-694, 1994).
Human tryptase is prepared pure from lung tissue or is prepared by recombination; the specific activity of the protease which has been determined by titration is normally more than 85% of the theoretical value. Constant amounts of the tryptase are incubated in the presence of heparin (0.1-50 μg/ml) to stabilize the protease with increasing amounts of the inhibitors. After equilibrium has been reached between the reactants, the remaining enzymic activity is determined after addition of the peptide-p-nitroanilide substrate tos-Gly-Pro-Arg-pNA, whose cleavage is followed at 405 nm for 3 min. Alternatively, the remaining enzymatic activity can also be determined using fluorogenic substrates. The apparent dissociation constants Klapp (i.e. in the presence of substrate) are then found by nonlinear regression by fitting the enzyme rates to the general equation for reversible inhibitors (Morrison J F, Kinetics of the reversible inhibition of enzyme catalysed reactions by tight-binding inhibitors, Biochim. Biophys. Acta 185, 269-286, 1969): Vl/V0=1−{Et+It+Klapp−[(Et+It+Klapp)^2−4EtIt]^1/2}/2Et
In this, Vl and V0 are the rates respectively in the presence and absence of the inhibitor and Et and It are the concentrations of tryptase and of the inhibitor.
The apparent dissociation constants found for the compounds of the invention are evident from the following table A, in which the numbers of the compounds correspond to the numbers of the compounds in the examples [pKlapp=−logKlapp(mol/l)].
In the case of `COC(=O)Cc1cc(C#CCOC(=O)NCc2ccnc(N)c2)cc(C#CCOC(=O)NC2CC(C(=O)OC)N(C(=O)CCc3cccc(CN)c3)C2)c1` (stereo not shown) [Compound 6, dihydrochloride], the pKiapp is recorded as 7.19.

In the case of `COC(=O)Cc1cc(C#CCOC(=O)NCc2ccnc(N)c2)cc(C#CCOC(=O)NC2CC(C(=O)OC)N(C(=O)CCc3ccc(CN)cc3)C2)c1` (stereo not shown) [Compound 5, dihydrochloride], the pKiapp was determined as 6.00.

Turning to `COC(=O)Cc1cc(C#CCOC(=O)NCc2ccc(N)nc2)cc(C#CCOC(=O)NC2CC(C(=O)OC)N(C(=O)CCc3ccc(CN)cc3)C2)c1` (stereo not shown) [Compound 4, dihydrochloride], the pKiapp stood at 6.57. In the case of `COC(=O)Cc1cc(C#CCOC(=O)NCc2ccc(N)nc2)cc(C#CCOC(=O)NC2CC(C(=O)OC)N(C(=O)CCc3cccc(CN)c3)C2)c1` (stereo not shown) [Compound 3, dihydrochloride] it was 7.80.
